Measurements taken from PMC5218480 (PLoS ONE, 2017).

Tested on: MV-4-11 cells
Test: Gene expression microarray analysis (Affymetrix PrimeView) and GSEA
Type: cell-based, human
Design: RFU PODN (11730768_x_at) / Fold change /veh PODN (11730768_x_at) / RFU LINC00158 (11744669_a_at) / Fold change /veh LINC00158 (11744669_a_at) / RFU DUSP10 (11751237_a_at) / Fold change /veh DUSP10 (11751237_a_at) / RFU ID3 (11757404_x_at) / Fold change /veh ID3 (11757404_x_at) / RFU PLEKHG5 (11737974_s_at) / Fold change /veh PLEKHG5 (11737974_s_at) / RFU LRRC4B (11730491_at) / Fold change /veh LRRC4B (11730491_at) / RFU GIMAP4 (11747438_a_at) / Fold change /veh GIMAP4 (11747438_a_at) / RFU KRT8 (11758183_x_at) / Fold change /veh KRT8 (11758183_x_at) / RFU CNN1 (11734310_a_at) / Fold change /veh CNN1 (11734310_a_at) / RFU VPS37D (11726825_at) / Fold change /veh VPS37D (11726825_at) / RFU C10orf10 (11716522_x_at) / Fold change /veh C10orf10 (11716522_x_at) / RFU KIR2DL2 /// KIR2DL4 /// KIR2DL5A /// KIR2DL5B /// KIR2DS1 /// KIR2DS2 /// KIR2DS3 /// KIR2DS4 /// KIR3DL3 /// KIR3DL3 /// KIR3DS1 (11738374_at) / Fold change /veh KIR2DL2 /// KIR2DL4 /// KIR2DL5A /// KIR2DL5B /// KIR2DS1 /// KIR2DS2 /// KIR2DS3 /// KIR2DS4 /// KIR3DL3 /// KIR3DL3 /// KIR3DS1 (11738374_at) / RFU C1QL1 (11718748_at) / Fold change /veh C1QL1 (11718748_at) / RFU TMPRSS4 (11747572_a_at) / Fold change /veh TMPRSS4 (11747572_a_at) / RFU HAMP (11756126_x_at) / Fold change /veh HAMP (11756126_x_at) / RFU RNFT2 (11725882_a_at) / Fold change /veh RNFT2 (11725882_a_at) / RFU NR4A2 (11747474_a_at) / Fold change /veh NR4A2 (11747474_a_at) / RFU ABCC12 (11746883_a_at) / Fold change /veh ABCC12 (11746883_a_at) / RFU TMEM136 (11760407_x_at) / Fold change /veh TMEM136 (11760407_x_at) / RFU CLDN22 /// WWC2 (11732394_at) / Fold change /veh CLDN22 /// WWC2 (11732394_at) / RFU HLA-DPB1 (11760878_x_at) / Fold change /veh HLA-DPB1 (11760878_x_at) / RFU SPINT1 (11716480_a_at) / Fold change /veh SPINT1 (11716480_a_at) / RFU GAP43 (11754022_s_at) / Fold change /veh GAP43 (11754022_s_at) / RFU A4GNT (11735810_at) / Fold change /veh A4GNT (11735810_at) / RFU PRB3 (11715151_x_at) / Fold change /veh PRB3 (11715151_x_at) / RFU TUBB4B (11761932_at) / Fold change /veh TUBB4B (11761932_at) / RFU CAPN14 (11732068_a_at) / Fold change /veh CAPN14 (11732068_a_at) / RFU TMCC2 (11721928_a_at) / Fold change /veh TMCC2 (11721928_a_at) / RFU IRGQ (11745062_a_at) / Fold change /veh IRGQ (11745062_a_at) / RFU FAM174B (11720279_a_at) / Fold change /veh FAM174B (11720279_a_at) / RFU TMPRSS4 (11748680_a_at) / Fold change /veh TMPRSS4 (11748680_a_at) / RFU FAM212B (11763350_a_at) / Fold change /veh FAM212B (11763350_a_at) / RFU PLEKHG5 (11743358_a_at) / Fold change /veh PLEKHG5 (11743358_a_at) / RFU ZSCAN30 (11745921_a_at) / Fold change /veh ZSCAN30 (11745921_a_at) / RFU CMKLR1 (11741424_a_at) / Fold change /veh CMKLR1 (11741424_a_at) / RFU LOC101060620 /// MAPK8IP1 (11723275_at) / Fold change /veh LOC101060620 /// MAPK8IP1 (11723275_at) / RFU SPTSSB (11747773_x_at) / Fold change /veh SPTSSB (11747773_x_at) / RFU PRSS12 (11739890_at) / Fold change /veh PRSS12 (11739890_at) / RFU BIN1 (11741810_x_at) / Fold change /veh BIN1 (11741810_x_at) / RFU WNT11 (11732464_a_at) / Fold change /veh WNT11 (11732464_a_at) / RFU C10orf10 (11716521_a_at) / Fold change /veh C10orf10 (11716521_a_at) / RFU C5orf56 (11738089_at) / Fold change /veh C5orf56 (11738089_at) / RFU CYB561 (11721691_x_at) / Fold change /veh CYB561 (11721691_x_at) / RFU ANKRD19P (11752326_a_at) / Fold change /veh ANKRD19P (11752326_a_at) / RFU OR2T12 /// OR2T33 /// OR2T8 (11738714_s_at) / Fold change /veh OR2T12 /// OR2T33 /// OR2T8 (11738714_s_at) / RFU VCAN (11748164_a_at) / Fold change /veh VCAN (11748164_a_at) / RFU JSRP1 (11732532_at) / Fold change /veh JSRP1 (11732532_at) / RFU KRTAP10-11 (11738290_x_at) / Fold change /veh KRTAP10-11 (11738290_x_at) / RFU MYO3A (11730013_a_at) / Fold change /veh MYO3A (11730013_a_at) / RFU EBF3 (11725865_a_at) / Fold change /veh EBF3 (11725865_a_at) / RFU CAMK2N1 (11719241_x_at) / Fold change /veh CAMK2N1 (11719241_x_at) / RFU C5orf56 (11738088_a_at) / Fold change /veh C5orf56 (11738088_a_at) / RFU OLFML3 (11715873_a_at) / Fold change /veh OLFML3 (11715873_a_at) / RFU LOC100653217 /// NTM (11731650_a_at) / Fold change /veh LOC100653217 /// NTM (11731650_a_at) / RFU MAPK11 (11762145_a_at) / Fold change /veh MAPK11 (11762145_a_at) / RFU FIZ1 (11724087_x_at) / Fold change /veh FIZ1 (11724087_x_at) / RFU OASL (11726364_x_at) / Fold change /veh OASL (11726364_x_at) / RFU SOX15 (11748057_x_at) / Fold change /veh SOX15 (11748057_x_at) / RFU CD79A (11719716_a_at) / Fold change /veh CD79A (11719716_a_at) / RFU HIST1H1D (11736915_at) / Fold change /veh HIST1H1D (11736915_at) / RFU CASKIN2 (11723855_a_at) / Fold change /veh CASKIN2 (11723855_a_at) / RFU LOC730098 (11760151_x_at) / Fold change /veh LOC730098 (11760151_x_at) / RFU OR4N2 (11742367_at) / Fold change /veh OR4N2 (11742367_at) / RFU PRRT2 (11749266_a_at) / Fold change /veh PRRT2 (11749266_a_at) / RFU SNX32 (11753110_a_at) / Fold change /veh SNX32 (11753110_a_at) / RFU CDHR5 (11726645_a_at) / Fold change /veh CDHR5 (11726645_a_at) / RFU RCAN1 (11760418_a_at) / Fold change /veh RCAN1 (11760418_a_at) / RFU FAM167A (11723789_a_at) / Fold change /veh FAM167A (11723789_a_at) / RFU FAM26E (11764081_at) / Fold change /veh FAM26E (11764081_at) / RFU ISYNA1 (11749810_s_at) / Fold change /veh ISYNA1 (11749810_s_at) / RFU ACY1 (11761880_at) / Fold change /veh ACY1 (11761880_at) / RFU 11764098_at / Fold change /veh 11764098_at / RFU SAMD14 (11745864_x_at) / Fold change /veh SAMD14 (11745864_x_at) / RFU NPB (11741838_a_at) / Fold change /veh NPB (11741838_a_at) / RFU TMPRSS6 (11731388_a_at) / Fold change /veh TMPRSS6 (11731388_a_at) / RFU KRTAP10-2 (11738614_at) / Fold change /veh KRTAP10-2 (11738614_at) / RFU ARHGAP8 /// PRR5-ARHGAP8 (11727945_x_at) / Fold change /veh ARHGAP8 /// PRR5-ARHGAP8 (11727945_x_at) / RFU KRTAP5-7 /// NADSYN1 (11734609_at) / Fold change /veh KRTAP5-7 /// NADSYN1 (11734609_at) / RFU RASL12 (11751679_a_at) / Fold change /veh RASL12 (11751679_a_at) / RFU CDKN2B (11736163_a_at) / Fold change /veh CDKN2B (11736163_a_at) / RFU PRF1 (11729649_at) / Fold change /veh PRF1 (11729649_at) / RFU, ZNF638 /// ZNF638-IT1 / Fold change vs veh, ZNF638 /// ZNF638-IT1 / RFU, PANK3 / Fold change vs veh, PANK3 / RFU, SH3YL1 / Fold change vs veh, SH3YL1 / RFU, ZEB2 / Fold change vs veh, ZEB2 / RFU, NRIP1 / Fold change vs veh, NRIP1 / RFU, PTTG1IP / Fold change vs veh, PTTG1IP / RFU, CAPN2 / Fold change vs veh, CAPN2 / RFU, MED14 / Fold change vs veh, MED14 / RFU, SNORA58 / Fold change vs veh, SNORA58 / RFU, C1orf63 / Fold change vs veh, C1orf63 / RFU, LRRFIP1 / Fold change vs veh, LRRFIP1 / RFU, NDUFAF7 / Fold change vs veh, NDUFAF7 / RFU, SLC12A2 / Fold change vs veh, SLC12A2 / RFU, IBTK / Fold change vs veh, IBTK / RFU, ESF1 / Fold change vs veh, ESF1 / Fold change vs veh, TMEM50B / RFU, TAOK1 / Fold change vs veh, TAOK1 / RFU, ACBD3 / Fold change vs veh, ACBD3 / RFU, TMA16 / Fold change vs veh, TMA16 / RFU, RWDD3 / Fold change vs veh, RWDD3 / RFU, BCAT1 / Fold change vs veh, BCAT1 / RFU, EDEM3 / Fold change vs veh, EDEM3 / RFU, TMEM33 / Fold change vs veh, TMEM33 / RFU, WDR75 / Fold change vs veh, WDR75 / RFU, AHCTF1 / Fold change vs veh, AHCTF1 / RFU, TFRC / Fold change vs veh, TFRC / RFU, ZDHHC17 / Fold change vs veh, ZDHHC17 / RFU, NOM1 / Fold change vs veh, NOM1 / RFU, ARL8B / Fold change vs veh, ARL8B / RFU, ZBTB11 / Fold change vs veh, ZBTB11 / RFU, TAMM41 / Fold change vs veh, TAMM41 / RFU, KIAA1704 /// LOC100996395 / Fold change vs veh, KIAA1704 /// LOC100996395 / RFU, ING1 / Fold change vs veh, ING1 / RFU, TRMT61B / Fold change vs veh, TRMT61B / RFU, FUBP3 / Fold change vs veh, FUBP3 / RFU, TP53 / Fold change vs veh, TP53 / RFU, TNKS2 / Fold change vs veh, TNKS2 / RFU, ZFP14 / Fold change vs veh, ZFP14 / RFU, ACTR2 / Fold change vs veh, ACTR2 / RFU, PPP3R1 / Fold change vs veh, PPP3R1 / RFU, PIK3R1 / Fold change vs veh, PIK3R1 / RFU, HNRNPA1 / Fold change vs veh, HNRNPA1 / RFU, RNF170 / Fold change vs veh, RNF170 / RFU, ZNF28 / Fold change vs veh, ZNF28 / RFU, RNGTT / Fold change vs veh, RNGTT / RFU, OGT / Fold change vs veh, OGT / RFU, BRD1 / Fold change vs veh, BRD1 / RFU, MARS / Fold change vs veh, MARS / RFU, ZNF655 / Fold change vs veh, ZNF655 / RFU, FAHD1 / Fold change vs veh, FAHD1 / RFU, BDP1 / Fold change vs veh, BDP1 / RFU, LRRCC1 / Fold change vs veh, LRRCC1 / RFU, ARID1A / Fold change vs veh, ARID1A / RFU, ZNF146 / Fold change vs veh, ZNF146 / RFU, ZNF330 / Fold change vs veh, ZNF330 / RFU, GPN3 / Fold change vs veh, GPN3 / RFU, C9orf123 / Fold change vs veh, C9orf123 / RFU, N4BP2L2 / Fold change vs veh, N4BP2L2 / RFU, ARFIP1 / Fold change vs veh, ARFIP1 / RFU, FAM179B / Fold change vs veh, FAM179B / RFU, BCL10 / Fold change vs veh, BCL10 / RFU, UHRF1BP1L / Fold change vs veh, UHRF1BP1L / RFU, BET1 / Fold change vs veh, BET1 / RFU, CNOT2 / Fold change vs veh, CNOT2 / RFU, ZNF268 / Fold change vs veh, ZNF268 / Fold change vs veh, ZNF507 / RFU, DGCR2 / Fold change vs veh, DGCR2 / RFU, WDSUB1 / Fold change vs veh, WDSUB1 / Fold change vs veh, HSP90B1 /// MIR3652 / RFU, ADSS / Fold change vs veh, ADSS / RFU, GK / Fold change vs veh, GK / RFU, ZNF148 / Fold change vs veh, ZNF148 / RFU, TAF9 / Fold change vs veh, TAF9 / RFU, SLC1A5 / Fold change vs veh, SLC1A5 / RFU, SLMO2 / Fold change vs veh, SLMO2 / RFU, ABCC4 / Fold change vs veh, ABCC4 / RFU, LOC101060439 /// RAP1B / Fold change vs veh, LOC101060439 /// RAP1B / RFU, RFX7 / Fold change vs veh, RFX7 / RFU, GTPBP10 / Fold change vs veh, GTPBP10 / RFU, CNEP1R1 / Fold change vs veh, CNEP1R1 / RFU, BIVM-ERCC5 /// ERCC5 / Fold change vs veh, BIVM-ERCC5 /// ERCC5 / RFU, ILF3 / Fold change vs veh, ILF3 / RFU 11762660_at / Fold change /veh 11762660_at / RFU VCAN (11757783_s_at) / Fold change /veh VCAN (11757783_s_at) / RFU DDX43 (11728927_at) / Fold change /veh DDX43 (11728927_at) / RFU KRT8 (11758188_x_at) / Fold change /veh KRT8 (11758188_x_at) / RFU NKD1 (11759106_at) / Fold change /veh NKD1 (11759106_at) / RFU SRD5A1 (11742802_a_at) / Fold change /veh SRD5A1 (11742802_a_at) / RFU TPSAB1 /// TPSB2 (11721975_s_at) / Fold change /veh TPSAB1 /// TPSB2 (11721975_s_at) / RFU GSTM3 (11746129_a_at) / Fold change /veh GSTM3 (11746129_a_at) / RFU IL23R (11737362_x_at) / Fold change /veh IL23R (11737362_x_at) / RFU TMEM51 (11727254_a_at) / Fold change /veh TMEM51 (11727254_a_at) / RFU PIWIL2 (11732686_x_at) / Fold change /veh PIWIL2 (11732686_x_at) / RFU ORM1 (11744905_x_at) / Fold change /veh ORM1 (11744905_x_at) / RFU CCDC152 (11743942_at) / Fold change /veh CCDC152 (11743942_at) / RFU ECM1 (11717891_a_at) / Fold change /veh ECM1 (11717891_a_at) / RFU IL23R (11748794_a_at) / Fold change /veh IL23R (11748794_a_at) / RFU TNFAIP8L3 (11732012_x_at) / Fold change /veh TNFAIP8L3 (11732012_x_at) / RFU MBOAT4 (11741988_at) / Fold change /veh MBOAT4 (11741988_at) / RFU 11764193_at / Fold change /veh 11764193_at / RFU TMEM53 (11763286_at) / Fold change /veh TMEM53 (11763286_at) / RFU MAGEB2 (11727129_at) / Fold change /veh MAGEB2 (11727129_at) / RFU TMEM200A (11744735_a_at) / Fold change /veh TMEM200A (11744735_a_at) / RFU CCDC152 (11751479_a_at) / Fold change /veh CCDC152 (11751479_a_at) / RFU FAM211A (11726209_a_at) / Fold change /veh FAM211A (11726209_a_at) / RFU RGS16 (11746705_a_at) / Fold change /veh RGS16 (11746705_a_at) / RFU VCAN (11755009_s_at) / Fold change /veh VCAN (11755009_s_at) / RFU RHOB (11743442_s_at) / Fold change /veh RHOB (11743442_s_at) / RFU RGS16 (11720943_a_at) / Fold change /veh RGS16 (11720943_a_at) / RFU RGS16 (11720944_at) / Fold change /veh RGS16 (11720944_at) / RFU, VPS4B / Fold change vs veh, VPS4B / RFU, CREB1 / Fold change vs veh, CREB1 / RFU, DNAJC13 / Fold change vs veh, DNAJC13 / RFU, GNAQ / Fold change vs veh, GNAQ / RFU, CDK5R1 / Fold change vs veh, CDK5R1 / RFU, ZRANB3 / Fold change vs veh, ZRANB3 / RFU, CUL4A / Fold change vs veh, CUL4A / RFU, CCNY / Fold change vs veh, CCNY / RFU, UFL1 / Fold change vs veh, UFL1 / RFU, COG3 / Fold change vs veh, COG3 / RFU, DIAPH2 / Fold change vs veh, DIAPH2 / RFU, SKA2 / Fold change vs veh, SKA2 / RFU, AFF3 / Fold change vs veh, AFF3 / RFU, LMF1 / Fold change vs veh, LMF1 / RFU, IPO11 / Fold change vs veh, IPO11 / RFU, DFFB / Fold change vs veh, DFFB / RFU, FOXP1 / Fold change vs veh, FOXP1 / RFU, CARD8 / Fold change vs veh, CARD8 / RFU, STRN3 / Fold change vs veh, STRN3 / RFU, ADK / Fold change vs veh, ADK / RFU, RASSF2 / Fold change vs veh, RASSF2 / RFU, WIPF1 / Fold change vs veh, WIPF1 / RFU, LARP1B / Fold change vs veh, LARP1B / RFU, RASA1 / Fold change vs veh, RASA1 / RFU, RB1 / Fold change vs veh, RB1 / RFU, PPFIA1 / Fold change vs veh, PPFIA1 / RFU, MAT2A / Fold change vs veh, MAT2A / RFU, CCT5 / Fold change vs veh, CCT5 / RFU, WDR92 / Fold change vs veh, WDR92 / RFU, CUX1 / Fold change vs veh, CUX1 / RFU, TTC7A / Fold change vs veh, TTC7A / RFU, TMEM135 / Fold change vs veh, TMEM135 / RFU, DEPTOR / Fold change vs veh, DEPTOR / RFU, CPM / Fold change vs veh, CPM / RFU, DNAJB6 / Fold change vs veh, DNAJB6 / RFU, CACNA2D3 / Fold change vs veh, CACNA2D3 / RFU, DTX4 / Fold change vs veh, DTX4 / RFU, TFCP2 / Fold change vs veh, TFCP2 / RFU, GMCL1 /// GMCL1P1 / Fold change vs veh, GMCL1 /// GMCL1P1 / RFU, AEBP2 / Fold change vs veh, AEBP2 / RFU, SNHG1 /// SNORD22 /// SNORD25 /// SNORD26 /// SNORD27 /// SNORD28 /// SNORD29 /// SNORD31 / Fold change vs veh, SNHG1 /// SNORD22 /// SNORD25 /// SNORD26 /// SNORD27 /// SNORD28 /// SNORD29 /// SNORD31 / Fold change (Aza/veh), C12orf56 (ProbeSet 11735607_a_at) / Fold change (ACY-1035/veh), C12orf56 (ProbeSet 11735607_a_at) / Fold change (Aza/veh), FGFR1OP (ProbeSet 11751329_s_at) / Fold change (ACY-1035/veh), FGFR1OP (ProbeSet 11751329_s_at) / Fold change (Aza/veh), VPS36 (ProbeSet 11739960_a_at) / Fold change (ACY-1035/veh), VPS36 (ProbeSet 11739960_a_at) / RFU SYPL1 (11715823_x_at) / Fold change /veh SYPL1 (11715823_x_at) / RFU IGFBP7 (11715501_s_at) / Fold change /veh IGFBP7 (11715501_s_at) / RFU REEP3 (11722064_at) / Fold change /veh REEP3 (11722064_at) / RFU IGLL1 (11728026_x_at) / Fold change /veh IGLL1 (11728026_x_at): dose or concentration left out as unconfirmed
Conditions: MV-4-11 cells, 48 hours

## Nc1ncn([C@@H]2O[C@H](CO)[C@@H](O)[C@H]2O)c(=O)n1 [azacitidine]
  RFU ANKRD19P (11752326_a_at): 6.34 RFU
